Test results reported in US9079866B2, “Flap modulators” (JANSSEN PHARMACEUTICA NV, priority 2013, dated 2015).
Structures can show the parent of a compound that is named as a salt. Where two headings read alike, the source gives them in different places.

Tests used:
[1] = system: leukotriene pathway in human whole blood (LTB4 levels); experiment: Human whole blood assay (A23187-stimulated LTB4); type: cell-based; settings: Homo sapiens, read-out: LTB4 IC50 1:1
How it was run: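 Blood (heparin) diluted 1:1 RPMI; compound pre-incubation 15 min, 37° Celsius; A23187 7 μg/mL, 30 min, 37° Celsius; plasma LTB4 by commercial kit. IC50 via 4-parameter equation.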

human FLAP = human FLAP (Homo sapiens (Human), UniProt P20292); experiment: FLAP binding assay (HTRF format); settings: HTRF format
How it was run: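 HTRF ratio read-out; two independent plates, samples in duplicate on each, values averaged across plates.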

[2] = human whole blood diluted 1:1 in RPMI, A23187-stimulated LTB4
[3] = human FLAP wild type, average of two plates, duplicates
[4] = human whole blood diluted 1:1, A23187-stimulated

Sequence of human FLAP (P20292 whole entry): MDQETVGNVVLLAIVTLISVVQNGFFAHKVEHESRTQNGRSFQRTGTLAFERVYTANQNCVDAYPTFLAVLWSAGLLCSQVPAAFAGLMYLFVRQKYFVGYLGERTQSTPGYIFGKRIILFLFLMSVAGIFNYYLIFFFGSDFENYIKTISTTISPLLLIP

Row | IC50 [1, 2] | Ki (human FLAP; [3]) | IC50 [1, 4] | Ki (human FLAP; wild type FLAP) | Compound
1 |  |  | 24 nM | 2 nM | Nc1cnc(-c2ccc(-c3ccc(C(F)(F)F)cc3Oc3ccnc(N)n3)cc2F)cn1 [Example 555, 4-{[4′-(5-Aminopyrazin-2-yl)-3′-fluoro-4-(trifluoromethyl)biphenyl-2-yl]oxy}pyrimidin-2-amine]
2 |  |  | 118 nM | 177 nM | Nc1ncc(-c2ccc(-c3ccc(C(F)(F)F)cc3S(=O)(=O)NCCO)cn2)cn1 [Example 690, 2-[6-(2-Aminopyrimidin-5-yl)pyridin-3-yl]-N-(2-hydroxyethyl)-5-(trifluoromethyl)benzenesulfonamide]
3 |  |  | 6.37 nM | 0.4 nM | Nc1cnc(-c2ccc(-c3cccnc3S(=O)(=O)C3CCCCC3)cc2F)cn1 [Example 808, 5-(4-(2-(Cyclohexylsulfonyl)pyridin-3-yl)-2-fluorophenyl)pyrazin-2-amine hydrochloride]
4 |  |  | 16.2 nM | 5.2 nM | Nc1cnc(-c2ccc(-c3ccc(C(F)(F)F)cc3C(=O)N3CCS(=O)(=O)CC3)cc2F)cn1 [Example 757, 5-{2′-[(1,1-Dioxidothiomorpholin-4-yl)carbonyl]-3-fluoro-4′-(trifluoromethyl)biphenyl-4-yl}pyrazin-2-amine]
5 |  |  | 95.1 nM | 192 nM | Nc1ncc(-c2ccc(-c3cccnc3S(=O)(=O)CC3CCOCC3)cc2F)cn1 [Example 823, 5-(2-Fluoro-4-(2-(((tetrahydro-2H-pyran-4-yl)methyl)sulfonyl)pyridine-3-yl)pyrimidin-2-amine formic acid salt]
6 |  |  | 510 nM | 25 nM | CC(C)CS(=O)(=O)N(C)c1ccccc1-c1ccc(-c2cnc(N)cn2)c(F)c1 [Example 497, N-[4′-(5-Aminopyrazin-2-yl)-3′-fluorobiphenyl-2-yl]-N,2-dimethylpropane-1-sulfonamide]
7 |  |  | 114 nM | 3 nM | Nc1cc(-c2ccc(-c3ccccc3S(=O)(=O)NC3(CO)CCCC3)cc2F)cc2cc[nH]c12 [Example 456, 4′-(7-Amino-1H-indol-5-yl)-3′-fluoro-N-[1-(hydroxymethyl)cyclopentyl]biphenyl-2-sulfonamide]

Further lines, the compound ahead of its results:

Row | Compound | IC50 [1, 2] | Ki (human FLAP; [3]) | IC50 [1, 4] | Ki (human FLAP; wild type FLAP)
8 | CCC(C)(C)NS(=O)(=O)c1ccccc1-c1ccc(-c2ccc(N)nc2)c(F)c1 [Example 349, 4′-(6-Aminopyridin-3-yl)-3′-fluoro-N-(tert-pentyl)-[1,1′-biphenyl]-2-sulfonamide] | 13 nM | 1 nM |  | 
9 | CC(C)N(CCO)S(=O)(=O)c1ccccc1-c1ccc(-c2cnc(N)nc2)c(F)c1 [Example 261, 4′-(2-Aminopyrimidin-5-yl)-3′-fluoro-N-(2-hydroxyethyl)-N-(1-methylethyl)biphenyl-2-sulfonamide] | 75 nM | 6 nM |  | 
10 | CC(CO)NS(=O)(=O)c1ccccc1-c1ccc(-c2cnc3[nH]ccc3n2)c(F)c1 (stereo in doubt) [Example 380, 3′-Fluoro-N-[(1S)-2-hydroxy-1-methylethyl]-4′-(5H-pyrrolo[2,3-b]pyrazin-2-yl)biphenyl-2-sulfonamide] | 46 nM | 1 nM |  | 
11 | CCN(CC)S(=O)(=O)c1ccccc1-c1ccc(-c2cnc3[nH]ccc3n2)c(F)c1 [Example 373, N,N-Diethyl-3′-fluoro-4′-(5H-pyrrolo[2,3-b]pyrazin-2-yl)biphenyl-2-sulfonamide] | 7 nM | 1 nM |  | 
12 | CC(C)(C)NS(=O)(=O)c1ccccc1-c1ccc(-c2ccc(N)cn2)c(F)c1 [Example 427, 4′-(5-Aminopyridin-2-yl)-N-tert-butyl-3′-fluorobiphenyl-2-sulfonamide] |  |  | 1600 nM | 54 nM
13 | Nc1ncc(-c2ccc(-c3ccc(C(F)(F)F)cc3S(=O)(=O)N3CCNC(=O)C3)cc2F)cn1 [Example 324, 4-{[4′-(2-Aminopyrimidin-5-yl)-3′-fluoro-4-(trifluoromethyl)biphenyl-2-yl]sulfonyl}piperazin-2-one] | 101 nM | 19 nM |  | 
